From ChEMBL document CHEMBL2429777, “Synthesis and antibacterial activity evaluation of 2,6-bis(6-substituted-1,2,4-triazolo[3,4-b][1,3,4]thiadiazol-3-yl)pyridine derivatives” (2013) come the findings set out here.

Values after ≈ are worked out from the molar mass of the structure shown.

The test system of test [1] is Pseudomonas aeruginosa. As to the kind of experiment: Antibacterial activity against Pseudomonas aeruginosa by serial dilution method. The format is functional.
In test [2] the test system is Escherichia coli. The test can be described thus: Antibacterial activity against Escherichia coli by serial dilution method.
Test [3] concerns Bacillus subtilis. The test can be described thus: Antibacterial activity against Bacillus subtilis by serial dilution method. The format is functional.
Test [4] deals with Streptococcus pneumoniae. As to the kind of experiment: Antibacterial activity against Streptococcus pneumoniae by serial dilution method. The format is functional.
For test [5], the system named is Staphylococcus aureus. The test can be described thus: Antibacterial activity against Staphylococcus aureus by serial dilution method. The format is functional.
Test [6] relates to Pseudomonas aeruginosa. The test can be described thus: Antibacterial activity against Pseudomonas aeruginosa at 250 ug/tube after 24 hrs by cylinder-plate method. The format is functional.
In test [7] the test system is Escherichia coli. As to the kind of experiment: Antibacterial activity against Escherichia coli at 250 ug/tube after 24 hrs by cylinder-plate method. The format is functional.
The subject of test [8] is Streptococcus pneumoniae. The test can be described thus: Antibacterial activity against Streptococcus pneumoniae at 250 ug/tube after 24 hrs by cylinder-plate method. The format is functional.
Test [9] has as its system Bacillus subtilis. The test can be described thus: Antibacterial activity against Bacillus subtilis at 250 ug/tube after 24 hrs by cylinder-plate method. The format is functional.
For test [10], the system named is Staphylococcus aureus. The test can be described thus: Antibacterial activity against Staphylococcus aureus at 250 ug/tube after 24 hrs by cylinder-plate method. The format is functional.
Test [11] concerns Pseudomonas aeruginosa. As to the kind of experiment: Antibacterial activity against Pseudomonas aeruginosa at 100 ug/tube after 24 hrs by cylinder-plate method. The format is functional.
Test [12] concerns Escherichia coli. As to the kind of experiment: Antibacterial activity against Escherichia coli at 100 ug/tube after 24 hrs by cylinder-plate method. The format is functional.
Test [13] has as its system Streptococcus pneumoniae. The test can be described thus: Antibacterial activity against Streptococcus pneumoniae at 100 ug/tube after 24 hrs by cylinder-plate method. The format is functional.
Test [14] has as its system Bacillus subtilis. As to the kind of experiment: Antibacterial activity against Bacillus subtilis at 100 ug/tube after 24 hrs by cylinder-plate method. The format is functional.
The test system of test [15] is Staphylococcus aureus. As to the kind of experiment: Antibacterial activity against Staphylococcus aureus at 100 ug/tube after 24 hrs by cylinder-plate method. The format is functional.

As for `Cc1nn2c(-c3cccc(-c4nnc5sc(C)nn45)n3)nnc2s1`, the MIC in the test with Pseudomonas aeruginosa [1] is 128 µg/mL (≈ 360 µM); in the test on Escherichia coli [2] it was 64 µg/mL (≈ 180 µM); with Bacillus subtilis [3], more than 128 µg/mL; in the test on Streptococcus pneumoniae [4] it was 128 µg/mL (≈ 360 µM); in the test with Staphylococcus aureus [5] it was 128 µg/mL (≈ 360 µM). Further, the “diameter of the inhibition zone (DIZ)” value with Pseudomonas aeruginosa [6] was determined as 12 mm; in the test on Escherichia coli [7] it was 14 mm; in the test on Streptococcus pneumoniae [8], 12 mm; in the test with Bacillus subtilis [9] it was 10 mm; in the test with Staphylococcus aureus [10], 12 mm.
Turning to `CC1(C)S[C@@H]2[C@H](NC(=O)[C@H](N)c3ccccc3)C(=O)N2[C@H]1C(=O)[O-].[Na+]` [AMPICILLIN SODIUM], the MIC in the test with Pseudomonas aeruginosa [1] is 2 µg/mL; against Bacillus subtilis [3], 0.5 µg/mL; against Streptococcus pneumoniae [4], 2 µg/mL; against Staphylococcus aureus [5], 1 µg/mL. The “diameter of the inhibition zone (DIZ)” value is 17 mm in the test on Pseudomonas aeruginosa [11]; 17 mm in the test with Escherichia coli [12]; 18 mm in the test with Streptococcus pneumoniae [13]; 21 mm in the test on Bacillus subtilis [14]; 23 mm in the test on Staphylococcus aureus [15].
Regarding `Clc1cccc(-c2nn3c(-c4cccc(-c5nnc6sc(-c7cccc(Cl)c7)nn56)n4)nnc3s2)c1`, the MIC in the test on Pseudomonas aeruginosa [1] turned out to be 64 µg/mL (≈ 117 µM); in the test on Escherichia coli [2], 64 µg/mL (≈ 117 µM); against Bacillus subtilis [3], 64 µg/mL (≈ 117 µM); in the test on Streptococcus pneumoniae [4], 32 µg/mL (≈ 58.3 µM); in the test on Staphylococcus aureus [5] it was 64 µg/mL (≈ 117 µM). Also, the “diameter of the inhibition zone (DIZ)” value in the test with Pseudomonas aeruginosa [6] is 14 mm; with Escherichia coli [7], 15 mm; in the test with Streptococcus pneumoniae [8] it was 16 mm; in the test on Bacillus subtilis [9] it was 13 mm; with Staphylococcus aureus [10], 14 mm.
With `Ic1cccc(-c2nn3c(-c4cccc(-c5nnc6sc(-c7cccc(I)c7)nn56)n4)nnc3s2)c1`, the MIC in the test with Pseudomonas aeruginosa [1] stood at 64 µg/mL (≈ 87.5 µM); with Escherichia coli [2] it was 32 µg/mL (≈ 43.8 µM); against Bacillus subtilis [3], 64 µg/mL (≈ 87.5 µM); with Streptococcus pneumoniae [4] it was 64 µg/mL (≈ 87.5 µM); against Staphylococcus aureus [5], 32 µg/mL (≈ 43.8 µM). Further, the “diameter of the inhibition zone (DIZ)” value amounted to 15 mm with Pseudomonas aeruginosa [6]; 18 mm with Escherichia coli [7]; 14 mm with Streptococcus pneumoniae [8]; 14 mm in the test with Bacillus subtilis [9]; 16 mm in the test on Staphylococcus aureus [10].
Turning to `COc1ccc(-c2nn3c(-c4cccc(-c5nnc6sc(-c7ccc(OC)cc7)nn56)n4)nnc3s2)cc1`, the MIC was determined as 128 µg/mL (≈ 237 µM) against Pseudomonas aeruginosa [1]; 32 µg/mL (≈ 59.3 µM) with Escherichia coli [2]; 64 µg/mL (≈ 119 µM) in the test with Bacillus subtilis [3]; 64 µg/mL (≈ 119 µM) with Streptococcus pneumoniae [4]; 64 µg/mL (≈ 119 µM) against Staphylococcus aureus [5]. Also, the “diameter of the inhibition zone (DIZ)” value in the test with Pseudomonas aeruginosa [6] amounted to 12 mm; in the test with Escherichia coli [7], 16 mm; with Streptococcus pneumoniae [8], 14 mm; with Bacillus subtilis [9], 14 mm; with Staphylococcus aureus [10], 14 mm.
For the molecule `c1cc(-c2nnc3sc(-c4ccncc4)nn23)nc(-c2nnc3sc(-c4ccncc4)nn23)c1`, the MIC was 128 µg/mL (≈ 266 µM) with Pseudomonas aeruginosa [1]; 64 µg/mL (≈ 133 µM) in the test with Escherichia coli [2]; more than 128 µg/mL against Bacillus subtilis [3]; 128 µg/mL (≈ 266 µM) with Streptococcus pneumoniae [4]; 128 µg/mL (≈ 266 µM) in the test on Staphylococcus aureus [5]. The “diameter of the inhibition zone (DIZ)” value in the test with Pseudomonas aeruginosa [6] is reported as 13 mm; in the test with Escherichia coli [7] it was 14 mm; in the test on Streptococcus pneumoniae [8] it was 13 mm; with Bacillus subtilis [9], 10 mm; in the test on Staphylococcus aureus [10], 12 mm.
Regarding `O=[N+]([O-])c1ccc(-c2nn3c(-c4cccc(-c5nnc6sc(-c7ccc([N+](=O)[O-])cc7)nn56)n4)nnc3s2)cc1`, the MIC was 128 µg/mL (≈ 225 µM) with Pseudomonas aeruginosa [1]; 64 µg/mL (≈ 112 µM) in the test with Escherichia coli [2]; 128 µg/mL (≈ 225 µM) against Bacillus subtilis [3]; 64 µg/mL (≈ 112 µM) in the test with Streptococcus pneumoniae [4]; 128 µg/mL (≈ 225 µM) against Staphylococcus aureus [5]. For the same molecule, the “diameter of the inhibition zone (DIZ)” value in the test with Pseudomonas aeruginosa [6] worked out at 12 mm; in the test on Escherichia coli [7], 15 mm; in the test on Streptococcus pneumoniae [8], 15 mm; in the test with Bacillus subtilis [9] it was 11 mm; in the test on Staphylococcus aureus [10] it was 13 mm.
On to `c1cncc(-c2nn3c(-c4cccc(-c5nnc6sc(-c7cccnc7)nn56)n4)nnc3s2)c1`, for which the MIC against Pseudomonas aeruginosa [1] is 128 µg/mL (≈ 266 µM); with Escherichia coli [2], 64 µg/mL (≈ 133 µM); against Bacillus subtilis [3] it was 128 µg/mL (≈ 266 µM); against Streptococcus pneumoniae [4], 128 µg/mL (≈ 266 µM); in the test on Staphylococcus aureus [5], 128 µg/mL (≈ 266 µM). For the same molecule, the “diameter of the inhibition zone (DIZ)” value in the test with Pseudomonas aeruginosa [6] came out at 13 mm; with Escherichia coli [7], 14 mm; in the test with Streptococcus pneumoniae [8], 13 mm; in the test on Bacillus subtilis [9] it was 11 mm; in the test with Staphylococcus aureus [10] it was 12 mm.
As to `c1cc(-c2nnc3sc(-c4ccco4)nn23)nc(-c2nnc3sc(-c4ccco4)nn23)c1`, the MIC against Pseudomonas aeruginosa [1] was 32 µg/mL (≈ 69.6 µM); with Escherichia coli [2] it was 64 µg/mL (≈ 139 µM); with Bacillus subtilis [3], 128 µg/mL (≈ 279 µM); with Streptococcus pneumoniae [4] it was 128 µg/mL (≈ 279 µM); with Staphylococcus aureus [5], 64 µg/mL (≈ 139 µM). Besides, the “diameter of the inhibition zone (DIZ)” value with Pseudomonas aeruginosa [6] is given as 15 mm; in the test with Escherichia coli [7], 15 mm; with Streptococcus pneumoniae [8], 12 mm; with Bacillus subtilis [9], 12 mm; in the test on Staphylococcus aureus [10], 14 mm.
With `Clc1ccc(-c2nn3c(-c4cccc(-c5nnc6sc(-c7ccc(Cl)cc7)nn56)n4)nnc3s2)cc1`, the MIC against Pseudomonas aeruginosa [1] came to 32 µg/mL (≈ 58.3 µM); against Escherichia coli [2] it was 32 µg/mL (≈ 58.3 µM); against Bacillus subtilis [3], 64 µg/mL (≈ 117 µM); against Streptococcus pneumoniae [4], 32 µg/mL (≈ 58.3 µM); in the test on Staphylococcus aureus [5], 32 µg/mL (≈ 58.3 µM). Besides, the “diameter of the inhibition zone (DIZ)” value in the test on Pseudomonas aeruginosa [6] was determined as 15 mm; in the test on Escherichia coli [7], 17 mm; in the test with Streptococcus pneumoniae [8], 16 mm; in the test on Bacillus subtilis [9] it was 14 mm; in the test on Staphylococcus aureus [10] it was 15 mm.
Regarding GENTAMICIN, the MIC in the test on Pseudomonas aeruginosa [1] turned out to be 1 µg/mL; against Bacillus subtilis [3], 2 µg/mL; in the test on Streptococcus pneumoniae [4], 2 µg/mL; against Staphylococcus aureus [5], 2 µg/mL. Besides, the inhibition zone (IZ) in the test with Streptococcus pneumoniae [13] amounted to 21 mm; in the test on Bacillus subtilis [14], 22 mm.
Take `c1ccc(-c2nn3c(-c4cccc(-c5nnc6sc(-c7ccccc7)nn56)n4)nnc3s2)cc1`: the MIC with Pseudomonas aeruginosa [1] is more than 128 µg/mL; against Escherichia coli [2] it was 128 µg/mL (≈ 267 µM); against Bacillus subtilis [3] it was more than 128 µg/mL; against Streptococcus pneumoniae [4] it was 128 µg/mL (≈ 267 µM); in the test with Staphylococcus aureus [5] it was 128 µg/mL (≈ 267 µM). For the same molecule, the “diameter of the inhibition zone (DIZ)” value was determined as 10 mm in the test with Pseudomonas aeruginosa [6]; 12 mm with Escherichia coli [7]; 12 mm in the test with Streptococcus pneumoniae [8]; 10 mm in the test on Bacillus subtilis [9]; 12 mm in the test on Staphylococcus aureus [10].
Consider `Cc1ccc(-c2nn3c(-c4cccc(-c5nnc6sc(-c7ccc(C)cc7)nn56)n4)nnc3s2)cc1`, for which the MIC is more than 128 µg/mL against Pseudomonas aeruginosa [1]; 64 µg/mL (≈ 126 µM) in the test on Escherichia coli [2]; more than 128 µg/mL with Bacillus subtilis [3]; 128 µg/mL (≈ 252 µM) against Streptococcus pneumoniae [4]; 128 µg/mL (≈ 252 µM) with Staphylococcus aureus [5]. For the same molecule, the “diameter of the inhibition zone (DIZ)” value in the test with Pseudomonas aeruginosa [6] is given as 10 mm; with Escherichia coli [7], 14 mm; in the test with Streptococcus pneumoniae [8] it was 13 mm; in the test on Bacillus subtilis [9], 10 mm; with Staphylococcus aureus [10] it was 13 mm.
In the case of `O=[N+]([O-])c1cccc(-c2nn3c(-c4cccc(-c5nnc6sc(-c7cccc([N+](=O)[O-])c7)nn56)n4)nnc3s2)c1`, the MIC was 128 µg/mL (≈ 225 µM) against Pseudomonas aeruginosa [1]; 64 µg/mL (≈ 112 µM) in the test on Escherichia coli [2]; 128 µg/mL (≈ 225 µM) against Bacillus subtilis [3]; 64 µg/mL (≈ 112 µM) against Streptococcus pneumoniae [4]; 128 µg/mL (≈ 225 µM) in the test with Staphylococcus aureus [5]. In addition, the “diameter of the inhibition zone (DIZ)” value is 12 mm with Pseudomonas aeruginosa [6]; 14 mm in the test with Escherichia coli [7]; 14 mm in the test on Streptococcus pneumoniae [8]; 11 mm with Bacillus subtilis [9]; 13 mm in the test on Staphylococcus aureus [10].

In general, MIC refers to the least concentration at which growth counts as inhibited. Higher therefore signals a less susceptible organism.
